Values of other authors in patent US9271959B2, “Bicyclic tetrahydropyrrole compounds” (Laboratorios del Dr. Esteve, S.A., priority 2006, dated 2016).

Experiments:
sigma (σ-2) site = sigma (σ-2) site (Homo sapiens, UniProt Q5BJF2)
sigma 1 (σ-1) site = sigma 1 (σ-1) site (Homo sapiens, UniProt Q99720)
Chain of sigma 1 (σ-1) site (Q99720 whole entry): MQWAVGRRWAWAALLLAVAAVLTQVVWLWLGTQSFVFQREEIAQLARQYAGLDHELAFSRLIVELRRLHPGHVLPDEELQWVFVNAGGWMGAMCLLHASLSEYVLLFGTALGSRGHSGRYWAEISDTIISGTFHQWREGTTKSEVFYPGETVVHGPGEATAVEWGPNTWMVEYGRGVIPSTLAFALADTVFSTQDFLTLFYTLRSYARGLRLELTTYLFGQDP

Chain of sigma (σ-2) site (Q5BJF2 whole entry): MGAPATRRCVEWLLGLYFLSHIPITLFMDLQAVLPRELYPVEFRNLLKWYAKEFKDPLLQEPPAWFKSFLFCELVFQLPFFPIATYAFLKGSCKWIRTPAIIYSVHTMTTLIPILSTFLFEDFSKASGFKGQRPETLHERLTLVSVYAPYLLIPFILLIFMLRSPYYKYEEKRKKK

For SKF 10047, the “affinity for the sigma (σ-2) site” value (sigma (σ-2) site) is given as “micromolar affinity” and the “affinity for the sigma 1 (σ-1) site” value (sigma 1 (σ-1) site) is given as “nanomolar affinity”.
